From ChEMBL document CHEMBL4024702, “Covalent Modifiers: A Chemical Perspective on the Reactivity of α,β-Unsaturated Carbonyls with Thiols via Hetero-Michael Addition Reactions” (J Med Chem, 2017)
One block for each compound: values may come before it.

What was measured:
[1] = Cysteine reactivity of the compound assessed as second order rate constant by 1H NMR analysis
[2] = DTT reactivity of the compound in acetonitrile to tris-HCL buffer at pH 7.4 by NMR spectroscopic analysis
[3] = Glutathione reactivity of the compound in acetonitrile to tris-HCL buffer at pH 7.4 by NMR spectroscopic analysis
[4] = Cysteamine reactivity of the compound in TRIS-HCL assessed as second order rate constant at 40 uM and pH 7.4
A549 = assay: Cytotoxicity against human A549 cells assessed as reduction in cell viability after 96 hrs by SRB asssay; format: functional, cell-based; details: A549, 96 h
MCF7 = assay: Cytotoxicity against human MCF7 cells assessed as reduction in cell viability after 96 hrs by SRB asssay; format: functional, cell-based; details: MCF7, 96 h
HT-29 = assay: Cytotoxicity against human HT-29 cells assessed as reduction in cell viability after 96 hrs by SRB asssay; format: functional, cell-based; details: HT-29, 96 h
A-431 = assay: Cytotoxicity against human A431 cells assessed as reduction in cell viability after 96 hrs by SRB asssay; format: functional, cell-based; details: A-431, 96 h
518A2 = assay: Cytotoxicity against human 518A2 cells assessed as reduction in cell viability after 96 hrs by SRB asssay; format: functional, cell-based; details: 518A2, 96 h
[5] = Cysteamine reactivity of the compound in TRIS-HCL assessed as second order rate constant at 40 uM and pH 7.4 by stopped-flow assay
[6] = Glutathione reactivity of the compound in DMSO/HEPES buffer assessed as second order rate constant for adduct formation at pH 7.4 by spectroscopic analysis
[7] = Glutathione reactivity of the compound in PBS buffer assessed as rate constant for 1,4-adduct formation at pH 7.4
[8] = Thiol reactivity of the compound in PBS buffer assessed as adduct formation at 100 to 200 uM at pH 7.4 by UV-visible spectroscopic analysis
[9] = Thiol reactivity of the compound in PBS/DMSO buffer assessed as pseudo-first order rate constant for adduct formation
Papain (Carica papaya) = biological target: T1, Papain (Carica papaya) (UniProt P00784); assay: Irreversible inhibition of Carica papaya papain assessed as ratio of Kinact to Ki
T1 sequence (whole entry): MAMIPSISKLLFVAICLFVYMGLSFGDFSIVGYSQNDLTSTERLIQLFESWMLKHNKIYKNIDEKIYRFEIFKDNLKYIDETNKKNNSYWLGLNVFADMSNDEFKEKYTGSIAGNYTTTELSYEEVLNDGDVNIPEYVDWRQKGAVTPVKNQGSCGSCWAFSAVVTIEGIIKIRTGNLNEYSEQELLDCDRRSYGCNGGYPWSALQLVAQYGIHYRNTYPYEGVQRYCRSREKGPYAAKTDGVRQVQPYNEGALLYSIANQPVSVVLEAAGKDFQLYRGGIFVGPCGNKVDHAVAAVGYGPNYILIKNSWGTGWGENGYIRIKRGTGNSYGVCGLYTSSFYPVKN

[10] = Thiol reactivity of the compound in PBS buffer assessed as pseudo-first order rate constant for adduct formation in presence of 4-nitrobenzenethiol at pH 7.4 by stop-flow spectrophotometric analysis
Tetrahymena pyriformis = assay: Toxicity in Tetrahymena pyriformis assessed as growth inhibition after 48 hrs
[11] = Glutathione reactivity of the compound in DMSO and phosphate buffer assessed as second order rate constant for adduct formation
[12] = Thiol reactivity of the compound in DMSO/PBS buffer assessed as adduct formation by measuring half life of parent compound by 1H NMR analysis; format: physicochemical

Compound: NC(=O)CI
K [1]: 25 M⁻¹ s⁻¹

Compound: O=C1/C(=C/c2ccccc2O)CC/C1=C\c1ccccc1O
DTT second-order rate constant [2]: 29 M⁻¹ s⁻¹
Activity [3]: 87 M⁻¹ s⁻¹

Compound: COc1ccc(C(=O)CC(SCCN)c2ccc(OC)c(OC)c2)c(OC)c1 (stereo not given)
K [4]: 0.19 M⁻¹ s⁻¹

Compound: CC1=CC[C@]23O[C@@]2(C)CC[C@@H]2[C@H](OC(=O)[C@H]2CN2CCSCC2)[C@@H]13
IC50 (A549): 4.76 µM
IC50 (MCF7): 13.4 µM
IC50 (HT-29): 16.2 µM
IC50 (A-431): 16.9 µM
IC50 (518A2): 13.2 µM

Compound: COc1ccc(C(=O)C(C(SCCN)c2ccc(OC)c(OC)c2)C(F)(F)F)c(OC)c1 (stereo not given)
K [5]: 17 M⁻¹ s⁻¹

Compound: CCN(CC)c1ccc2cc(C(CC=O)SC[C@H](NC(=O)CC[C@H](N)C(=O)O)C(=O)NCC(=O)O)c(=O)oc2c1 (stereo not given in full)
K [6]: 0.41 M⁻¹ s⁻¹

Compound: CC1OC(O)CC1SC[C@@H](N)C(=O)O (stereo not given in full)
K [7]: 25 M⁻¹ s⁻¹

Compound: COc1ccc(C(=O)C(C(SCCN)c2ccc(OC)c(OC)c2)[N+](=O)[O-])c(OC)c1 (stereo not given)
K [5]: 750 M⁻¹ s⁻¹

Kd [8]: 11900 µM
Compound: N#CC(C(N)=O)C(SCCO)c1ccsc1 (stereo not given)

Compound: O=C(/C=C/c1ccccc1O)/C=C/c1ccccc1O
DTT second-order rate constant [2]: 2.5 M⁻¹ s⁻¹
Activity [3]: 5 M⁻¹ s⁻¹

Kd [8]: 6200 µM
Compound: N#CC(C(N)=O)C(SCCO)c1cccc2[nH]ccc12 (stereo not given)

Compound: CC1=CC[C@]23O[C@@]2(C)CC[C@@H]2[C@H](OC(=O)[C@H]2CN(C)C)[C@@H]13
IC50 (A549): 1.95 µM
IC50 (MCF7): 1.85 µM
IC50 (HT-29): 10.8 µM
IC50 (A-431): 5.19 µM
IC50 (518A2): 5.54 µM

Compound: C=CS(=O)(=O)Nc1ccc([N+](=O)[O-])cc1
K [9]: 9 ×10⁻³ /s

Ratio (Papain (Carica papaya)): 1.2 M⁻¹ s⁻¹
Compound: COC(=O)/C=C/CNC(=O)c1cc(-c2ccc(C)cc2)no1

Ratio (Papain (Carica papaya)): 0.5 M⁻¹ s⁻¹
Compound: COC(=O)/C=C/CNC(=O)C1CCN(C(=O)CC(C)C)CC1

Kd [8]: 200 µM
Compound: CS(=O)(=O)c1ccc(-c2cccc(C(SCCO)C(C#N)C(N)=O)c2)cc1 (stereo not given)

Compound: COc1ccc(C(C(=O)c2ccc(OC)cc2OC)C(SCCN)c2ccc(OC)c(OC)c2)cc1 (stereo not given)
K [4]: 0.0086 M⁻¹ s⁻¹

Compound: COc1ccc(C(=O)C(C(=O)O)C(SCCN)c2ccc(OC)c(OC)c2)c(OC)c1 (stereo not given)
K [4]: 0.0037 M⁻¹ s⁻¹

Compound: CCN(CC)c1ccc2cc(C(SC[C@H](NC(=O)CC[C@H](N)C(=O)O)C(=O)NCC(=O)O)C(C(C)=O)C(C)=O)c(=O)oc2c1 (stereo not given in full)
K [6]: 12 M⁻¹ s⁻¹

Compound: CC(C)(C)c1cc(O)cc(Sc2ccc([N+](=O)[O-])cc2)c1O
K [10]: 2.3 ×10¹ /s

Compound: Cc1cc(O)cc(Sc2ccc([N+](=O)[O-])cc2)c1O
K [10]: 3.2 ×10² /s

Compound: COc1ccc(C(=O)C(Cl)C(SCCN)c2ccc(OC)c(OC)c2)c(OC)c1 (stereo not given)
K [4]: 1.6 M⁻¹ s⁻¹

Compound: CS(=O)(=O)/C=C/CNC(=O)c1ccc([N+](=O)[O-])cc1
K [9]: 4 ×10⁻³ /s

Compound: O=[N+]([O-])c1ccc(Sc2cc(O)ccc2O)cc1
K [10]: 1.5 ×10³ /s

Compound: C=CC(=O)Nc1ccc([N+](=O)[O-])cc1
K [9]: 8 ×10⁻² /s

Compound: C=CS(=O)(=O)Nc1ccccc1
K [9]: 7.2 ×10⁻² /s

Kd [8]: 1300 µM
Compound: N#CC(C(N)=O)C(SCCO)c1ccc(-n2ccnc2)cc1 (stereo not given)

Compound: C#CC(=O)OCC [PROPYNOIC ACID ETHYL ESTER]
EC50 (Tetrahymena pyriformis): 17 µM
K [11]: 105 M⁻¹ s⁻¹

Compound: COc1ccc(C(=O)C(Br)C(SCCN)c2ccc(OC)c(OC)c2)c(OC)c1 (stereo not given)
K [5]: 2.9 M⁻¹ s⁻¹

t1/2 [12]: 4.8 min
Compound: Cc1csc(C(C#N)C(SCCO)C2CC2)n1 (stereo not given)

Compound: O=C(/C=C/c1ccccc1)/C=C/c1ccccc1
DTT second-order rate constant [2]: 0.42 M⁻¹ s⁻¹
Activity [3]: 0.15 M⁻¹ s⁻¹

Ratio (Papain (Carica papaya)): 0.4 M⁻¹ s⁻¹
Compound: COC(=O)/C=C/CNC(=O)[C@H](CNC(C)=O)Cc1ccccc1

Compound: COC(=O)/C=C/CNC(=O)c1ccccc1
K [9]: 3.7 ×10⁻⁴ /s

Compound: CC(CC=O)SC[C@H](NC(=O)CC[C@H](N)C(=O)O)C(=O)NCC(=O)O (stereo not given in full)
K [7]: 0.78 M⁻¹ s⁻¹

Compound: COc1ccc(C(=O)C(c2ccccc2)C(SCCN)c2ccc(OC)c(OC)c2)c(OC)c1 (stereo not given)
K [4]: 0.0067 M⁻¹ s⁻¹

Compound: CC(O)C(CC1NC(C(=O)O)CS1)SC[C@H](C)C(=O)O (stereo not given in full)
K [7]: 1.1 M⁻¹ s⁻¹

Compound: COc1ccc(C(=O)C(C)C(SCCN)c2ccc(OC)c(OC)c2)c(OC)c1 (stereo not given)
K [4]: 0.0075 M⁻¹ s⁻¹

t1/2 [12]: < 1 min
Compound: N#CC(C(N)=O)C(SCCO)c1ccccc1 (stereo not given)
